Measured values reported in patent publication US20240317721A1, “PYRAZOLYL DERIVATIVES AS INHIBITORS OF THE KRAS MUTANT PROTEIN” (NOVARTIS AG, priority 2021, published 2024).

Molecular target: KRasG12C mutant (Homo sapiens (Human), UniProt P01116, G12C)
Assay: covalent competition assay
Type: binding
Details: comparison of the two atropisomers; a(R) vs a(S) configuration

| relative activity of the atropisomers of a pair in the covalent competition assay | SMILES |
| --- | --- |
| most active atropisomer | C=CC(=O)N1CC2(CC(n3nc(N4CCN(C(C)=O)C[C@]4(C)CC)c(-c4c(Cl)c(C)cc5[nH]ncc45)c3C)C2)C1 (single isomer, unassigned) [Example 121b] |
| less active atropisomer | C=CC(=O)N1CC2(CC(n3nc(N4CCN(C(C)=O)C[C@]4(C)CC)c(-c4c(Cl)c(C)cc5[nH]ncc45)c3C)C2)C1 (single isomer, unassigned) [Example 121a] |

Molecular target: KRasG12C (Homo sapiens (Human), UniProt P01116, G12C)
Assay: MS-based assay assessing % modification of KRasG12C over compound concentrations and time points
Type: biochemical
Details: non-labeled ligand, internally determined, read-out: (kinact/KI)probe, second order rate constant for modification of KRasG12C

| kinact/KI [M⁻¹ s⁻¹] | SMILES |
| --- | --- |
| ~5000 | C=CC(=O)Nc1ccc(-n2c(C)c(-c3c(C)ccc4[nH]ncc34)c3cccnc32)c(F)c1 [Compound A, N-(3-fluoro-4-(2-methyl-3-(5-methyl-1H-indazol-4-yl)-1H-pyrrolo[2,3-b]pyridin-1-yl)phenyl)acrylamide] |

Molecular target: KRasG12C (M1-K169, biotinylated on the N-terminus) (Homo sapiens (Human), UniProt P01116, G12C)
Assay: Covalent competition assay: scintillation proximity assay (SPA) quantifying covalent modification of KRASG12C
Type: binding
Details: competition with radiolabeled covalent probe (Compound B/Compound A), 2 hours incubation, 10 nM KRasG12C
How it was run: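 Test compounds compete with a radiolabeled covalent probe for modification of N-terminally biotinylated KRasG12C(M1-K169):GDP, final 10 nM protein, 25 nM radio-ligand, 475 nM unlabelled ligand, 2 h with agitation in 20 mM Tris-HCl pH 7.5, 150 mM NaCl, 0.1 mM MgCl2, 0.01% Tween-20.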

| IC50 [nM] | SMILES |
| --- | --- |
| 8 | C=CC(=O)N1CC2(CC(n3nc(N4CCN(C(C)=O)C[C@]4(C)CC)c(-c4c(Cl)c(C)cc5[nH]ncc45)c3C)C2)C1 (single isomer, unassigned) [Example 121b] |
| > 5000 | C=CC(=O)N1CC2(CC(n3nc(N4CCN(C(C)=O)C[C@]4(C)CC)c(-c4c(Cl)c(C)cc5[nH]ncc45)c3C)C2)C1 (single isomer, unassigned) [Example 121a] |
| > 15000 | C=CC(=O)N1CC2(CC(n3nc(N4CCN(CC(F)(F)F)CC4(C)C)c(-c4c(Cl)c(C)cc5[nH]ncc45)c3C)C2)C1 (single isomer, unassigned) [Example 68a, 1-(6-(4-(5-chloro-6-methyl-1H-indazol-4-yl)-3-(2,2-dimethyl-4-(2,2,2-trifluoroethyl)piperazin-1-yl)-5-methyl-1H-pyrazol-1-yl)-2-azaspiro[3.3]heptan-2-yl)prop-2-en-1-one] |
| 254 | C=CC(=O)N1CC2(CC(n3nc(N4CCC(N5CCOCC5)CC4(C)C)c(-c4c(Cl)c(C)cc5[nH]ncc45)c3C)C2)C1 (single isomer, unassigned) [Example 35a, 1-(6-(4-(5-chloro-6-methyl-1H-indazol-4-yl)-3-(2,2-dimethyl-4-morpholinopiperidin-1-yl)-5-methyl-1H-pyrazol-1-yl)-2-azaspiro[3.3]heptan-2-yl)prop-2-en-1-one] |
| 8 | C=CC(=O)N1CC2(CC(n3nc(N4CCC(CN5C[C@@H]6C[C@H]5CO6)CC4(C)C)c(-c4c(Cl)c(Cl)cc5[nH]ncc45)c3C)C2)C1 (single isomer, unassigned) [Example 217b] |
| 1600 | C=CC(=O)N1CC2(CC(n3nc(N4CCC(CN5CCN(C)C(=O)C5)CC4(C)C)c(-c4c(Cl)c(Cl)cc5[nH]ncc45)c3C)C2)C1 (single isomer, unassigned) [Example 239a, 4-((1-(1-(2-acryloyl-2-azaspiro[3.3]heptan-6-yl)-4-(5,6-dichloro-1H-indazol-4-yl)-5-methyl-1H-pyrazol-3-yl)-2,2-dimethylpiperidin-4-yl)methyl)-1-methylpiperazin-2-one] |
| > 5000 | C=CC(=O)N1CC2(CC(n3nc(N4CCN(C5COC5)CC45CCC5)c(-c4c(C)c(O)cc(C)c4Cl)c3C)C2)C1 (single isomer, unassigned) [Example 49b, 1-(6-(4-(2-chloro-5-hydroxy-3,6-dimethylphenyl)-5-methyl-3-(8-(oxetan-3-yl)-5,8-diazaspiro[3.5]nonan-5-yl)-1H-pyrazol-1-yl)-2-azaspiro[3.3]heptan-2-yl)prop-2-en-1-one] |
| 10 | C=CC(=O)N1CC2(CC(n3nc(N4CCN(C[C@@H]5COCCO5)C[C@@]4(CC)C(F)F)c(-c4c(Cl)c(C)cc5[nH]ncc45)c3C)C2)C1 (single isomer, unassigned) [Example 107b] |
| > 5000 | [2H]C([2H])([2H])c1c(-c2c(Cl)c(Cl)cc3[nH]ncc23)c(N2CC[C@@H](CN3CCOCC3)CC2(C)C)nn1C1CC2(C1)CN(C(=O)C=C)C2 (single isomer, unassigned) [Example 224a] |
| 38 | C=CC(=O)N1CC2(CC(n3nc(N4CCN(CCOC)C[C@@]4(C)C(F)F)c(-c4c(Cl)c(C)cc5[nH]ncc45)c3C)C2)C1 (single isomer, unassigned) [Example 179b] |
| 679 | C=CC(=O)N1CC2(CC(n3nc(N4CC[C@H](CN5CCOCC5)CC4(C)C)c(-c4c(Cl)c(Cl)cc5[nH]ncc45)c3C)C2)C1 (single isomer, unassigned) [Example 214b] |
| 6100 | C=CC(=O)N1CC2(CC(n3nc(N4CCN(C(C)=O)CC4(C)C)c(-c4c(Cl)c(C)cc5[nH]ncc45)c3C)C2)C1 (single isomer, unassigned) [Example 18a, 1-(6-(3-(4-acetyl-2,2-dimethylpiperazin-1-yl)-4-(5-chloro-6-methyl-1H-indazol-4-yl)-5-methyl-1H-pyrazol-1-yl)-2-azaspiro[3.3]heptan-2-yl)prop-2-en-1-one] |
| > 50000 | C=CC(=O)N1CC2(CC(n3nc(N4CCN(C(C)=O)CC4)c(-c4c(Cl)ccc5[nH]ncc45)c3C)C2)C1C (single isomer, unassigned) [Example 198b, 1-(6-(3-(4-acetylpiperazin-1-yl)-4-(5-chloro-1H-indazol-4-yl)-5-methyl-1H-pyrazol-1-yl)-1-methyl-2-azaspiro[3.3]heptan-2-yl)prop-2-en-1-one] |
| > 50000 | C=CC(=O)N1CC2(CC(n3nc(N4CCn5nccc5C4(C)C)c(-c4c(Cl)c(C)cc5[nH]ncc45)c3C)C2)C1 (single isomer, unassigned) [Example 101a, 1-(6-(4-(5-chloro-6-methyl-1H-indazol-4-yl)-3-(4,4-dimethyl-6,7-dihydropyrazolo[1,5-a]pyrazin-5(4H)-yl)-5-methyl-1H-pyrazol-1-yl)-2-azaspiro[3.3]heptan-2-yl)prop-2-en-1-one] |
| > 5000 | C=CC(=O)N1CC2(CC(n3nc(N4CCC(CN5CCOCC5)C4(C)C)c(-c4c(Cl)c(Cl)cc5[nH]ncc45)c3C)C2)C1 (single isomer, unassigned) [Example 218b, 1-(6-(4-(5,6-dichloro-1H-indazol-4-yl)-3-(2,2-dimethyl-3-(morpholinomethyl)pyrrolidin-1-yl)-5-methyl-1H-pyrazol-1-yl)-2-azaspiro[3.3]heptan-2-yl)prop-2-en-1-one] |
| 315 | C=CC(=O)N1CC2(CC(n3nc(N4CCCCC4(C)C)c(-c4c(Cl)c(C)cc5[nH]ncc45)c3C)C2)C1 (single isomer, unassigned) [Example 103b, 1-(6-(4-(5-chloro-6-methyl-1H-indazol-4-yl)-3-(2,2-dimethylpiperidin-1-yl)-5-methyl-1H-pyrazol-1-yl)-2-azaspiro[3.3]heptan-2-yl)prop-2-en-1-one] |

| SMILES | IC50 [nM] |
| --- | --- |
| C=CC(=O)N1CC2(CC(n3nc(N4CC[C@@H](CN5C6CCC5CN(C(C)=O)C6)CC4(C)C)c(-c4c(Cl)c(Cl)cc5[nH]ncc45)c3C)C2)C1 (single isomer, unassigned) [Example 318a] | 4000 |
